Measurements: paper PMC5299059 (Cell metabolism, 2017)
pKd, pKi: −log10 of the molar value.

What was measured:
BRAF V600E [1] = target: T1, BRAF V600E (Homo sapiens, UniProt P15056, V600E); test: […]-labeled acetoacetate radiometric binding to purified bead-bound BRAF
BRAF V600D [2] = target: T2, BRAF V600D (Homo sapiens, UniProt P15056, V600D); test: as above
BRAF V600R [3] = target: T3, BRAF V600R (Homo sapiens, UniProt P15056, V600R); test: as above
BRAF V600R [4] = target: T3, BRAF V600R; test: […]-acetoacetate competition binding
BRAF V600D [5] = target: T2, BRAF V600D; test: […]-acetoacetate competition binding
BRAF V600E [6] = target: T1, BRAF V600E; test: […]-acetoacetate competition binding

T3 sequence (P15056 whole entry V600R): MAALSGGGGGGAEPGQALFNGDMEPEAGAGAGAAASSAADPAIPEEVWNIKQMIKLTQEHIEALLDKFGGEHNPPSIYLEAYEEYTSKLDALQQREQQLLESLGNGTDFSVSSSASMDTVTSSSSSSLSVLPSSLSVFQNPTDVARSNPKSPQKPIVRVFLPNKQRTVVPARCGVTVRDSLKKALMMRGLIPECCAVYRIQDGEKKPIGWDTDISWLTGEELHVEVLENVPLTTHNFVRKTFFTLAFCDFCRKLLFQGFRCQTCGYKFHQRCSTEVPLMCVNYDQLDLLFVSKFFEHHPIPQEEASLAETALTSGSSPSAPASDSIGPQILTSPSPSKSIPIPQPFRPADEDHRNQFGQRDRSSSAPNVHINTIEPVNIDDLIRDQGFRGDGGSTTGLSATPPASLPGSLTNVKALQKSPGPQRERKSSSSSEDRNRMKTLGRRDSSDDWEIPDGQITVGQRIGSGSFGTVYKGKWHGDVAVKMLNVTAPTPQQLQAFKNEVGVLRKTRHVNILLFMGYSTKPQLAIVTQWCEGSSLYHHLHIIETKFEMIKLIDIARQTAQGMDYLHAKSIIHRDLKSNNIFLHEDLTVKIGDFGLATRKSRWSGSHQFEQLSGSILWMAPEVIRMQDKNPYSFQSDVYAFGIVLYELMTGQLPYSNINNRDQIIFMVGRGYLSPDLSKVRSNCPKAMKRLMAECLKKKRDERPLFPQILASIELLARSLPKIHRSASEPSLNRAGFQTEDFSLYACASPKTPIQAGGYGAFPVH
T1 sequence (P15056 2-766 V600E): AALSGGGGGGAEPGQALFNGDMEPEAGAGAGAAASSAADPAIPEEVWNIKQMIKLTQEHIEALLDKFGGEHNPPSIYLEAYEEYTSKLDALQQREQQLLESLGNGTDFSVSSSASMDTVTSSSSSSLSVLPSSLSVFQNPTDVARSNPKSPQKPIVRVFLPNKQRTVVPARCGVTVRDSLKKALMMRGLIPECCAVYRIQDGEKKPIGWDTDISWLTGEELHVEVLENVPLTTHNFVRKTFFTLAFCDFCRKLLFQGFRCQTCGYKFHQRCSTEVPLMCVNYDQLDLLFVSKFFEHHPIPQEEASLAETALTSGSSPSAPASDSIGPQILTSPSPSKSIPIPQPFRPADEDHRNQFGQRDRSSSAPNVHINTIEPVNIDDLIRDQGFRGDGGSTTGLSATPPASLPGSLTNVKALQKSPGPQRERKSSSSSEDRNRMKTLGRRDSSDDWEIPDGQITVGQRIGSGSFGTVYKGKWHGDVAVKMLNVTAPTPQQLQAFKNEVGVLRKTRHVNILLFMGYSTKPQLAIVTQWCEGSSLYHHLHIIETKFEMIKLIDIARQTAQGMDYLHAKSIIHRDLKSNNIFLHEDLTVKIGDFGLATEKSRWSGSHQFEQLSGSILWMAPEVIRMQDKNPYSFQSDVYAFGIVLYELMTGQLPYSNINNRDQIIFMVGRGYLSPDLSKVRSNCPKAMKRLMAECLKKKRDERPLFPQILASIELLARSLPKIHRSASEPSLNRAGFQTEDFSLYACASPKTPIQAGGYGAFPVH
T2 sequence (P15056 whole entry V600D): as the sequence (P15056 whole entry V600R) above, with R600D counted along it

Row | SMILES | pKd (BRAF V600E [1]) | pKd (BRAF V600D [2]) | pKd (BRAF V600R [3]) | pKi (BRAF V600R [4]) | pKi (BRAF V600D [5]) | pKi (BRAF V600E [6])
1 | CC(=O)CC(=O)O [AA, acetoacetate] | ~4.04 | ~4.03 | ~3.95 |  |  | 
2 | CC(=O)C1C(=O)C=C(C)OC1=O (stereo not drawn) [DHAA, dehydroacetic acid] |  |  |  | ~4.04 | ~4.06 | ~4.06
